Where two headings read alike, the source gives them in different places.
What was measured:
PARP-2 = molecular target: T1, PARP-2 (Homo sapiens, UniProt Q9UGN5); assay: PARP-2 inhibition assay (PARP-2 Chemiluminescent Assay Kit, BPS Bioscience); type: biochemical
T1 construct: purchased BPS Bioscience 80552
Procedure: (§1) The PARP-1 and PARP-2 inhibition assays were performed in outsourcing, by a CRO company, Shanghai Medicilon Inc. (Shanghai, China). […] Briefly, PARP-1 or PARP-2 biotinylated substrate was incubated with compounds or solvent control at varying concentrations and an assay buffer containing the PARP-1 or PARP-2 enzyme.

PARP-1 = molecular target: T2, PARP-1 (Homo sapiens, UniProt P09874); assay: PARP-1 inhibition assay (PARP-1 Chemiluminescent Assay Kit, BPS Bioscience); type: biochemical
T2 construct: purchased BPS Bioscience 80569
T2 sequence (P09874 whole entry): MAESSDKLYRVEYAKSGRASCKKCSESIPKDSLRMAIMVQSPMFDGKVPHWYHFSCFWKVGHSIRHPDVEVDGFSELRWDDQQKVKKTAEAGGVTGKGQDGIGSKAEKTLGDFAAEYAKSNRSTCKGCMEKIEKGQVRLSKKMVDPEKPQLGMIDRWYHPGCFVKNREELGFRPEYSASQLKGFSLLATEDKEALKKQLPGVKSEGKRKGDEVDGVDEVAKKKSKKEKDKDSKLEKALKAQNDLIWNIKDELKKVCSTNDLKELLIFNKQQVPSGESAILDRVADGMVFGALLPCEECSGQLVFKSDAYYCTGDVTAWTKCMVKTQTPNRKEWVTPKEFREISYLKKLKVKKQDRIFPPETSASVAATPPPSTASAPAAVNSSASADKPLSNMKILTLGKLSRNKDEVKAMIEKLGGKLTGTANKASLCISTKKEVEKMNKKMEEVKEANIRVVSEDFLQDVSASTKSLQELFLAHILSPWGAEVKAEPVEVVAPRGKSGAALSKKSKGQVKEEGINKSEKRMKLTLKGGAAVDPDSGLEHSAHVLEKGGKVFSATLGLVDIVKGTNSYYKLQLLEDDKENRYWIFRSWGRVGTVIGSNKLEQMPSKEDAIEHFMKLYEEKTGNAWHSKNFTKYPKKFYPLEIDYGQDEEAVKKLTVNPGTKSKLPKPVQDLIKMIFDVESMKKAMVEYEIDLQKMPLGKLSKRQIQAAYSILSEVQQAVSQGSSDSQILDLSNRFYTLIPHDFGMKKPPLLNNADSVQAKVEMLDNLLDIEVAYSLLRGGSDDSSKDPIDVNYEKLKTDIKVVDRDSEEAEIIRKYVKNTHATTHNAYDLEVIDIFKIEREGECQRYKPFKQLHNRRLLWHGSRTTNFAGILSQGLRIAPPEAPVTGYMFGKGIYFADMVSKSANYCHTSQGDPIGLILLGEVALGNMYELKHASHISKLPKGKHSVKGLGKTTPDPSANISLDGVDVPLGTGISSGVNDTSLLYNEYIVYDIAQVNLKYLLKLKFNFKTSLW
Procedure: as §1

[1] = tested on: CAPAN-1 (a BRCA-2-mutated pancreatic cancer cell line); assay: Cell proliferation assay, three-day, CellTiter-Glo, CAPAN-1; type: cell-based; conditions: for LogIC50: CAPAN-1, curve-fit output, Log (uM); for IC50 / inhibition at 0.00508 µM / inhibition at 0.0152 µM / inhibition at 0.0457 µM / inhibition at 0.41 µM / inhibition at 1.23 µM / inhibition at 3.7 µM / inhibition at 11.11 µM / inhibition at 33.33 µM / inhibition at 100 µM / inhibition at […]: Homo sapiens; for inhibition at […]: CAPAN-1, 0.14 uM
How it was run: (§2)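 Cells seeded overnight in 384-well plates, then exposed to compounds (DMSO stock diluted in medium) for 72 h at 37 °C, 5% CO2. Viability read as CellTiter-Glo luminescence after 60 min at room temperature.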

[2] = tested on: MDA-MB-436 (a BRCA-1-mutated breast cancer cell line); assay: Cell proliferation assay, three-day, CellTiter-Glo, MDA-MB-436; type: cell-based; conditions: for IC50 / inhibition at 0.00508 µM / inhibition at 0.0152 µM / inhibition at 0.0457 µM / inhibition at 0.41 µM / inhibition at 1.23 µM / inhibition at 3.7 µM / inhibition at 11.11 µM / inhibition at 33.33 µM / inhibition at 100 µM: Homo sapiens
How it was run: as §2

T1 sequence (Q9UGN5 whole entry): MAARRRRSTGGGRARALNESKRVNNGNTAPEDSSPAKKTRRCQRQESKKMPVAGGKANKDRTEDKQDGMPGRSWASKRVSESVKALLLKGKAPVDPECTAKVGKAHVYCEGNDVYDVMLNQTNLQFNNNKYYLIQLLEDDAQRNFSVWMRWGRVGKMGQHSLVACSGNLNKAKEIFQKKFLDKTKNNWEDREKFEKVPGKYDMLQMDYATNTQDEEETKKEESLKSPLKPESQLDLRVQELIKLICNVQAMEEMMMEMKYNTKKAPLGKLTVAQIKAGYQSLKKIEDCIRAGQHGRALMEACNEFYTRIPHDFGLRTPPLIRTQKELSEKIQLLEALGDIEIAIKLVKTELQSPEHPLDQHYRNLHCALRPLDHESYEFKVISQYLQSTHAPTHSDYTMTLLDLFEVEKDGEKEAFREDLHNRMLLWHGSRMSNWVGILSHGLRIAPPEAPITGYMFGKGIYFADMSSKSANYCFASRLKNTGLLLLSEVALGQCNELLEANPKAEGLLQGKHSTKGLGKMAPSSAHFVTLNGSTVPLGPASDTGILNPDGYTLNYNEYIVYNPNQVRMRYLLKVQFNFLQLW

NC(=O)c1cccc2[nH]c(C3CCN(CCC(O)c4ccccc4)C3)nc12 (stereo not drawn) [Compound 5cg, 2-(1-(3-Hydroxy-3-phenylpropyl)pyrrolidin-3-yl)-1H-benzo[d]imi-dazole-4-carboxamide]
inhibition at 0.01 µM (PARP-2; read-out: 10 nM inhibition% PAPR-2): 6.45%
inhibition at 0.01 µM (PARP-2; read-out: PARP-2 Inhibition % (10 nM)): 6.5%
inhibition at 0.01 µM (PARP-1; read-out: 10 nM inhibition% PAPR-1): -2.11%
inhibition at 0.01 µM (PARP-1; read-out: PARP-1 Inhibition % (10 nM)): -2.1%
LogIC50 [1]: 2.199
IC50 ([1]; CAPAN-1, 72 h, read-out: CAPAN-1 IC50 (μM)): > 100 µM
inhibition at 0.00508 µM ([1]; CAPAN-1, read-out: Inh % 1): 4.5%
inhibition at 0.0152 µM ([1]; CAPAN-1, read-out: Inh % 1): 16.3%
inhibition at 0.0457 µM ([1]; CAPAN-1, read-out: Inh % 1): 5.6%
inhibition at 0.41 µM ([1]; CAPAN-1, read-out: Inh % 1): 14.3%
inhibition at 1.23 µM ([1]; CAPAN-1, read-out: Inh % 1): 11.4%
inhibition at 3.7 µM ([1]; CAPAN-1, read-out: Inh % 1): 16.5%
inhibition at 11.11 µM ([1]; CAPAN-1, read-out: Inh % 1): 22%
inhibition at 33.33 µM ([1]; CAPAN-1, read-out: Inh % 1): 33.5%
inhibition at 100 µM ([1]; CAPAN-1, read-out: Inh % 1): 47.6%
inhibition at 0.00508 µM ([1]; CAPAN-1, read-out: Inh % 2): -5.2%
inhibition at 0.0152 µM ([1]; CAPAN-1, read-out: Inh % 2): -0.0618%
inhibition at 0.0457 µM ([1]; CAPAN-1, read-out: Inh % 2): 0.1%
inhibition at 0.41 µM ([1]; CAPAN-1, read-out: Inh % 2): 8.8%
inhibition at 1.23 µM ([1]; CAPAN-1, read-out: Inh % 2): 2.5%
inhibition at 3.7 µM ([1]; CAPAN-1, read-out: Inh % 2): 5.4%
inhibition at 11.11 µM ([1]; CAPAN-1, read-out: Inh % 2): -1.6%
inhibition at 33.33 µM ([1]; CAPAN-1, read-out: Inh % 2): 14%
inhibition at 100 µM ([1]; CAPAN-1, read-out: Inh % 2): 38.6%
IC50 ([2]; MDA-MB-436): 74.1 µM
IC50 ([2]; MDA-MB-436, 72 h): 74.1 µM
IC50 ([2]; MDA-MB-436, 72 h, read-out: MDA-MB-436 IC50 (μM)): 74.1 µM
inhibition at 0.00508 µM ([2]; MDA-MB-436, read-out: Inh % 1): 2.1%
inhibition at 0.0152 µM ([2]; MDA-MB-436, read-out: Inh % 1): -3.5%
inhibition at 0.0457 µM ([2]; MDA-MB-436, read-out: Inh % 1): -5.7%
inhibition at 0.41 µM ([2]; MDA-MB-436, read-out: Inh % 1): -16.8%
inhibition at 1.23 µM ([2]; MDA-MB-436, read-out: Inh % 1): -6%
inhibition at 3.7 µM ([2]; MDA-MB-436, read-out: Inh % 1): -10.1%
inhibition at 11.11 µM ([2]; MDA-MB-436, read-out: Inh % 1): 0.536%
inhibition at 33.33 µM ([2]; MDA-MB-436, read-out: Inh % 1): 21.6%
inhibition at 100 µM ([2]; MDA-MB-436, read-out: Inh % 1): 68%
inhibition at 0.00508 µM ([2]; MDA-MB-436, read-out: Inh % 2): -5%
inhibition at 0.0152 µM ([2]; MDA-MB-436, read-out: Inh % 2): -7%
inhibition at 0.0457 µM ([2]; MDA-MB-436, read-out: Inh % 2): -13.4%
inhibition at 0.41 µM ([2]; MDA-MB-436, read-out: Inh % 2): -9.8%
inhibition at 1.23 µM ([2]; MDA-MB-436, read-out: Inh % 2): -9.1%
inhibition at 3.7 µM ([2]; MDA-MB-436, read-out: Inh % 2): -17.7%
inhibition at 11.11 µM ([2]; MDA-MB-436, read-out: Inh % 2): -6.9%
inhibition at 33.33 µM ([2]; MDA-MB-436, read-out: Inh % 2): 10.8%
inhibition at 100 µM ([2]; MDA-MB-436, read-out: Inh % 2): 46.7%
LogIC50 ([2]; MDA-MB-436, curve fit on Log (uM) concentrations): 1.87
Top ([2]; MDA-MB-436, curve fit parameter (Inh %), '= 100.0' is a constrained value): = 100.0

NC(=O)c1cccc2[nH]c(C3CCN(CCCNc4ccccc4)C3)nc12 (stereo not drawn) [Compound 5ch, 2-(1-(3-(Phenylamino)propyl)pyrrolidin-3-yl)-1H-benzo[d]imidazole-4-carboxamide]
inhibition at 0.01 µM (PARP-2; 10 nM compound, supplement sheet, read-out: 10 nM inhibition% PAPR-2): 66.2%
inhibition at 0.01 µM (PARP-2; 10 nM compound, read-out: PARP-2 Inhibition % (10 nM)): 66.2%
IC50 (PARP-2; read-out: PARP-2 IC50): 0.0033 µM
IC50 (PARP-2; supplement sheet, read-out: IC50 PAPR-2): 0.00333 µM
inhibition at 0.01 µM (PARP-1; 10 nM compound, supplement sheet, read-out: 10 nM inhibition% PAPR-1): 47.5%
inhibition at 0.01 µM (PARP-1; 10 nM compound, read-out: PARP-1 Inhibition % (10 nM)): 47.5%
IC50 (PARP-1; read-out: PARP-1 IC50): 0.0071 µM
IC50 (PARP-1; supplement sheet, read-out: IC50 PAPR-1): 0.00714 µM
LogIC50 [1]: 2.153
IC50 ([1]; CAPAN-1, 72 h, CellTiter-Glo, read-out: CAPAN-1 IC50): > 100 µM
inhibition at 0.00508 µM ([1]; CAPAN-1, 0.00508 uM, replicate 1, read-out: Inh % 1): 2.8%
inhibition at 0.00508 µM ([1]; CAPAN-1, 0.00508 uM, replicate 2, read-out: Inh % 2): -6.9%
inhibition at 0.0152 µM ([1]; CAPAN-1, 0.0152 uM, replicate 1, read-out: Inh % 1): 3.5%
inhibition at 0.0152 µM ([1]; CAPAN-1, 0.0152 uM, replicate 2, read-out: Inh % 2): 0.5%
inhibition at 0.0457 µM ([1]; CAPAN-1, 0.0457 uM, replicate 1, read-out: Inh % 1): 5%
inhibition at 0.0457 µM ([1]; CAPAN-1, 0.0457 uM, replicate 2, read-out: Inh % 2): 0.2%
inhibition at […] ([1]; replicate 1, read-out: Inh % 1): -1.8%
inhibition at […] ([1]; replicate 2, read-out: Inh % 2): -3%
inhibition at 0.41 µM ([1]; CAPAN-1, 0.41 uM, replicate 1, read-out: Inh % 1): 6.4%
inhibition at 0.41 µM ([1]; CAPAN-1, 0.41 uM, replicate 2, read-out: Inh % 2): 6.3%
inhibition at 1.23 µM ([1]; CAPAN-1, 1.23 uM, replicate 1, read-out: Inh % 1): -2.4%
inhibition at 1.23 µM ([1]; CAPAN-1, 1.23 uM, replicate 2, read-out: Inh % 2): -3.6%
inhibition at 3.7 µM ([1]; CAPAN-1, 3.70 uM, replicate 1, read-out: Inh % 1): 7.7%
inhibition at 3.7 µM ([1]; CAPAN-1, 3.70 uM, replicate 2, read-out: Inh % 2): 10.2%
inhibition at 11.11 µM ([1]; CAPAN-1, 11.11 uM, replicate 1, read-out: Inh % 1): 2.2%
inhibition at 11.11 µM ([1]; CAPAN-1, 11.11 uM, replicate 2, read-out: Inh % 2): 3%
inhibition at 33.33 µM ([1]; CAPAN-1, 33.33 uM, replicate 1, read-out: Inh % 1): 29.9%
inhibition at 33.33 µM ([1]; CAPAN-1, 33.33 uM, replicate 2, read-out: Inh % 2): 20.6%
inhibition at 100 µM ([1]; CAPAN-1, 100.00 uM, replicate 1, read-out: Inh % 1): 46.6%
inhibition at 100 µM ([1]; CAPAN-1, 100.00 uM, replicate 2, read-out: Inh % 2): 35.5%
inhibition at 0.00508 µM ([2]; MDA-MB-436, MDA-MB-436, Conc. 0.00508 uM, replicate 1, read-out: Inh % 1): -7%
inhibition at 0.00508 µM ([2]; MDA-MB-436, MDA-MB-436, Conc. 0.00508 uM, replicate 2, read-out: Inh % 2): -8.2%
inhibition at 0.0152 µM ([2]; MDA-MB-436, MDA-MB-436, Conc. 0.0152 uM, replicate 1, read-out: Inh % 1): -3%
inhibition at 0.0152 µM ([2]; MDA-MB-436, MDA-MB-436, Conc. 0.0152 uM, replicate 2, read-out: Inh % 2): -8%
inhibition at 0.0457 µM ([2]; MDA-MB-436, MDA-MB-436, Conc. 0.0457 uM, replicate 1, read-out: Inh % 1): -14.2%
inhibition at 0.0457 µM ([2]; MDA-MB-436, MDA-MB-436, Conc. 0.0457 uM, replicate 2, read-out: Inh % 2): -14.8%
inhibition at 0.41 µM ([2]; MDA-MB-436, MDA-MB-436, Conc. 0.41 uM, replicate 1, read-out: Inh % 1): -13.7%
inhibition at 0.41 µM ([2]; MDA-MB-436, MDA-MB-436, Conc. 0.41 uM, replicate 2, read-out: Inh % 2): -16%
inhibition at 1.23 µM ([2]; MDA-MB-436, MDA-MB-436, Conc. 1.23 uM, replicate 1, read-out: Inh % 1): -13.7%
inhibition at 1.23 µM ([2]; MDA-MB-436, MDA-MB-436, Conc. 1.23 uM, replicate 2, read-out: Inh % 2): -10.6%
inhibition at 3.7 µM ([2]; MDA-MB-436, MDA-MB-436, Conc. 3.70 uM, replicate 1, read-out: Inh % 1): -16.2%
inhibition at 3.7 µM ([2]; MDA-MB-436, MDA-MB-436, Conc. 3.70 uM, replicate 2, read-out: Inh % 2): -4.5%
inhibition at 11.11 µM ([2]; MDA-MB-436, MDA-MB-436, Conc. 11.11 uM, replicate 1, read-out: Inh % 1): -9.3%
inhibition at 11.11 µM ([2]; MDA-MB-436, MDA-MB-436, Conc. 11.11 uM, replicate 2, read-out: Inh % 2): -8.6%
inhibition at 33.33 µM ([2]; MDA-MB-436, MDA-MB-436, Conc. 33.33 uM, replicate 1, read-out: Inh % 1): 3.2%
inhibition at 33.33 µM ([2]; MDA-MB-436, MDA-MB-436, Conc. 33.33 uM, replicate 2, read-out: Inh % 2): -1.4%
inhibition at 100 µM ([2]; MDA-MB-436, MDA-MB-436, Conc. 100.00 uM, replicate 1, read-out: Inh % 1): 39.9%
inhibition at 100 µM ([2]; MDA-MB-436, MDA-MB-436, Conc. 100.00 uM, replicate 2, read-out: Inh % 2): 37.2%
IC50 ([2]; MDA-MB-436, 72 h, CellTiter-Glo, read-out: MDA-MB-436 IC50): > 100 µM
